One assay concerns the target T1, CX3CR1 receptor (Homo sapiens, UniProt P49238).
T1 construct: host or cells: CHO K1 cells; membranes prepared in-house
T1 sequence (P49238 1-355): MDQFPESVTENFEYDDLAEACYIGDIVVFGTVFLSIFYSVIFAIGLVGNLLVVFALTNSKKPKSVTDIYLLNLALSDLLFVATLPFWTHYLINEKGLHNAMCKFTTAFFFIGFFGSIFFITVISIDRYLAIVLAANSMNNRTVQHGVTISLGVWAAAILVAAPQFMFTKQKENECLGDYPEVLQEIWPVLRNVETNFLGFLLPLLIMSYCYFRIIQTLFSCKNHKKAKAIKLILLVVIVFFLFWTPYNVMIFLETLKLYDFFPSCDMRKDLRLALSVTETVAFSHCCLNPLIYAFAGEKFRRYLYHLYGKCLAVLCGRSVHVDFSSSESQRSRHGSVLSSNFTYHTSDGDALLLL
Nature of the assay: Fractalkine (CX3CR1) GTPgS inhibition assay (96 well). The format is biochemical. The following applies: CX3CR1 CHO K1 membranes, inhibition of 35S-GTPγS signal generated by EC80 of fractalkine, triplicate. On the procedure:
The activation of the CX3CR1 receptor by fractalkine can be detected using a GTPγS assay. ^35S-labelled GTPγS is added to the reaction (together with compounds and CX3CR1 CHO K1 membranes) to bind to the G-protein in the membranes instead of GTP upon activation of the receptor. Since ^35S-labelled GTPγS is non-hydrolysable the receptor will stay in its active state. The bound ^35S-labelled GTPγS is separated from free by vacuum filtration onto 96 well filters. In inhibition assay mode the receptor in the membranes will be activated with the EC80 of fractalkine and further the CX3CR1 antagonists will inhibit the signal generated by the EC80 of fractalkine.
Ligand: Fractalkine, PeproTech, cat no 300-31, 1 mg, −20° C. Diluted in dH2O+0.05% BSA to a stock concentration of 0.1 mM, Stored in −20° C.
^35S-GTPγS, Perkin Elmer (NEN), Cat no NEG030H, Specific activity 1250 Ci/mmol, 1 mCi/ml, −20° C.
Membranes: membranes are prepared inhouse from CX3CR1 CHO K1 cells purchased from Euroscreen. Protein concentration: 5.7 mg/ml, −80° C.
• HEPES: Sigma H-3375, RT • MgCl2×6H2O: Merck, cat no 5833, RT • NaCl: Merck, cat no 6404, RT • GDP: −20° C., Sigma cat no G-7127, Diluted in dH2O to a stock concentration of 10 mM. • Stored in −20° C. • Gelatine type A: Sigma, cat no G2625, 1% stock in water (heating is necessary to dissolve gelatine) made fresh on the day of the experiment RT
• Tris: Tris-HCl: Sigma, cat no T1503, RT • Tris-base: Sigma, cat no T3283, RT • MgCl2×6H2O: Merck, cat no 5833, RT • NaCl: Merck, cat no 6404, RT • Assay plates: 96 well, Nunc, 269620 • Filter: Printed Filtermat B, Wallac • Scintillator sheets: MeltiLex B, PerkinElmer
Assay plates are prepared by CMT with 1 compound/plate. 2 μl compound with the highest concentration 3.3 mM diluted with a factor 3 in 10 steps. This gives a final assay concentration of 33 μM for the highest concentration.
100 μl membranes (5 μg/well) diluted in 2× assay buffer is added to the assay plate.
100 μl ^35S-GTPγS (final assay concentration: 0.00056 μCi/μl) diluted in dH2O with EC80 of fractalkine is then added. […]
The plate is read in a microbeta. […]
For orientation: Binding of GTPγS marks nucleotide exchange on a G protein.

The test system of assay [1] is human whole blood, adhesion to fractalkine. Briefly: Human whole blood flow adhesion assay. The format is cell-based. As to conditions: heparinised human whole blood, adhesion to recombinant human fractalkine under flow, 15 min preincubation. On the procedure:
Flow adhesion assays were performed using a microfluidics system (Cellix Microfluidics SP1.0 platform) and 8-channel biochips (Cellix Vena 8 biochips). Channel 1 was used as control and channels 2 to 8 to evaluate seven different concentrations of antagonist. To 25 monitor adhesion to fractalkine, channels were first coated with 15 μl of anti-His Tag antibody at 25 μg/ml for 2 hours. Channels were then washed three times with 15 μl DPBS to remove unbound antibody. Subsequently, 15 μl of recombinant human fractalkine at 2.5 μg/ml was added to each channel and biochips were left at 4° C. overnight in a humidified atmosphere. The following day, channels were washed three times with 15 μl DPBS prior to blocking with 15 μl of BSA at 10 mg/ml for 30 minutes. Human whole blood was obtained by venipuncture using heparin as anti-coagulant. DMSO carrier or compounds in DMSO were added to 0.3 ml blood in 1.5 ml Eppendorf tubes followed by incubation at room temperature for 15 minutes. The Vena 8 biochip was placed on a microscope stage and channels were washed with RPMI 1640 medium containing 1% BSA in preparation for the assays. […] Adhered cells were subsequently quantified using DucoCell software (Cellix).

With `CC(C)C[C@H](CO)Nc1nc(SC(C)c2ccccn2)nc2[nH]c(=O)sc12` (stereo partly drawn) [Example 1, 7-[(R)-1-hydroxy-4-methylpentan-2-ylamino]-5-[1-(pyridin-2-yl)ethylthio]thiazolo[4,5-d]pyrimidin-2(3H)-one], half-maximal inhibition against CX3CR1 receptor (IC50) required 2600 nM.

In the case of `CC(C)CC(CO)Nc1nc(SC(C)c2ccccn2)nc2[nH]c(=O)sc12` (single isomer, unassigned; isomer 1) [Example 12], the IC50 (as a rule, the concentration that inhibits the measured activity by half) at CX3CR1 receptor was 1000 nM; in assay [1], 2400 nM. Compound `CC(C)CC(CO)Nc1nc(SC(C)c2ccccn2)nc2[nH]c(=O)sc12` (single isomer, unassigned; isomer 2) [Example 13] gave an IC50 against CX3CR1 receptor of 9200 nM.

Source of the values: patent US20090247555A1, “5,7-Disubstituted[1,3]Thiazolo[4,5-D]Pyrimidin-2(3H)-One Derivatives 258” (AstraZeneca AB, priority 2008, published 2009).
